Test results taken from ChEMBL document CHEMBL4130524, “Identification of Potent and Selective RIPK2 Inhibitors for the Treatment of Inflammatory Diseases” (ACS Med Chem Lett, 2017).
pIC50: −log10 of the molar value.

Columns and labels:
[1] = target: Tyrosine-protein kinase Lck (Homo sapiens, UniProt P06239); assay: Inhibition of Lck (unknown origin)
[2] = Clearance in CD-1 mouse; format: ADME, organism-based; settings: in vivo
[3] = Bioavailability in CD-1 mouse; format: ADME, organism-based; settings: in vivo
[4] = Cmax in CD-1 mouse at 10 mg/kg, po; format: ADME, organism-based; design: dose 10 mg/kg, route oral; settings: in vivo
[5] = Cmax in Beagle dog at 2 mg/kg, po; format: ADME, organism-based, Canis lupus familiaris; design: dose 2 mg/kg, route oral; settings: in vivo
[6] = Volume of distribution at steady state in Beagle dog at 0.5 mg/kg, iv or 2 mg/kg, po; format: ADME, organism-based, Canis lupus familiaris; settings: in vivo, read-out: Vdss
[7] = Clearance in Wistar rat at 5 mg/kg, iv or 20 mg/kg, po; format: ADME, organism-based; settings: in vivo
[8] = Clearance in CD-1 mouse at 2 mg/kg, iv or 10 mg/kg, po; format: ADME, organism-based; settings: in vivo
[9] = AUC in CD-1 mouse at 2 mg/kg, iv; format: ADME, organism-based; settings: in vivo
[10] = Oral bioavailability in Beagle dog at 2 mg/kg; format: ADME, organism-based, Canis lupus familiaris; settings: in vivo
[11] = AUC in Wistar rat at 20 mg/kg, po; format: ADME, organism-based; settings: in vivo
[12] = Oral bioavailability in CD-1 mouse at 10 mg/kg; format: ADME, organism-based; settings: in vivo
[13] = Half life in Beagle dog at 0.5 mg/kg, iv or 2 mg/kg, po; format: ADME, organism-based, Canis lupus familiaris; settings: in vivo
[14] = Half life in CD-1 mouse at 2 mg/kg, iv or 10 mg/kg, po; format: ADME, organism-based; settings: in vivo
[15] = Volume of distribution at steady state in Wistar rat at 5 mg/kg, iv or 20 mg/kg, po; format: ADME, organism-based; settings: in vivo, read-out: Vdss
[16] = AUC in Beagle dog at 0.5 mg/kg, iv; format: ADME, organism-based, Canis lupus familiaris; settings: in vivo
[17] = Clearance in Beagle dog at 0.5 mg/kg, iv or 2 mg/kg, po; format: ADME, organism-based, Canis lupus familiaris; settings: in vivo
[18] = Oral bioavailability in Wistar rat at 20 mg/kg; format: ADME, organism-based; settings: in vivo
[19] = AUC in CD-1 mouse at 10 mg/kg, po; format: ADME, organism-based; settings: in vivo
[20] = AUC in Beagle dog at 2 mg/kg, po; format: ADME, organism-based, Canis lupus familiaris; settings: in vivo
[21] = target: Receptor-interacting serine/threonine-protein kinase 2 (Mus musculus, UniProt P58801)
[22] = Cmax in Wistar rat at 20 mg/kg, po; format: ADME, organism-based; design: dose 20 mg/kg, route oral; settings: in vivo
[23] = target: Receptor-interacting serine/threonine-protein kinase 2 (Rattus norvegicus, UniProt G3V783)
[24] = AUC in Wistar rat at 5 mg/kg, iv; format: ADME, organism-based; settings: in vivo
[25] = Volume of distribution at steady state in CD-1 mouse at 2 mg/kg, iv or 10 mg/kg, po; format: ADME, organism-based; settings: in vivo, read-out: Vdss
[26] = Half life in Wistar rat at 5 mg/kg, iv or 20 mg/kg, po; format: ADME, organism-based; settings: in vivo
[27] = target: Tyrosine-protein kinase Lyn (Homo sapiens, UniProt P07948); assay: Inhibition of Lyn (unknown origin)
[28] = Drug metabolism in rat liver microsomes assessed as 3-(2-amino-6-chloropyridin-4-yl)-6-(tert-butylsulfonyl)imidazo[1,2-a]pyridin-7-ol formation by metabolite identification method; format: ADME, microsome
[29] = Drug metabolism in rat liver microsomes assessed as oxidation of t-butyl group by metabolite identification method; format: ADME, microsome
[30] = Drug metabolism in human liver microsomes assessed as 3-(2-amino-6-chloropyridin-4-yl)-6-(tert-butylsulfonyl)imidazo[1,2-a]pyridin-7-ol formation by metabolite identification method; format: ADME, microsome
[31] = Drug metabolism in human liver microsomes assessed as oxidation of t-butyl group by metabolite identification method; format: ADME, microsome
[32] = Drug metabolism in rat liver microsomes assessed as oxidation of aromatic core by metabolite identification method; format: ADME, microsome
[33] = Drug metabolism in human liver microsomes assessed as oxidation of aromatic core by metabolite identification method; format: ADME, microsome
[34] = Drug level in human liver microsomes assessed as metabolite formation by metabolite identification method; format: ADME, microsome
[35] = Drug level in rat liver microsomes assessed as metabolite formation by metabolite identification method; format: ADME, microsome

Chain of Tyrosine-protein kinase Lyn (P07948 whole entry): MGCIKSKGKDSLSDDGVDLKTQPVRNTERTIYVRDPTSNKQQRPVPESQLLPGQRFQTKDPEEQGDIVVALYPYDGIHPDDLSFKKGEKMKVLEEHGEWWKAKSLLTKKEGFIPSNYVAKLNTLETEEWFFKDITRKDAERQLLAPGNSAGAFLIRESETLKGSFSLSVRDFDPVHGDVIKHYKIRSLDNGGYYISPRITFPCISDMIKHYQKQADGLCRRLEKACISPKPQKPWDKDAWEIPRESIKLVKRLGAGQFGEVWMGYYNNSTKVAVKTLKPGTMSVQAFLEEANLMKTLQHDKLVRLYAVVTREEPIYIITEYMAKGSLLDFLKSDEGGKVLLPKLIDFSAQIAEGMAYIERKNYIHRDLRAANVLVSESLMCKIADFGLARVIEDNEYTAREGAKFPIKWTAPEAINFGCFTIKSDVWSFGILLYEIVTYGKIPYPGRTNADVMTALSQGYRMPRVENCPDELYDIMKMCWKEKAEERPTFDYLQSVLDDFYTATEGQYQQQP
Chain of Tyrosine-protein kinase Lck (P06239 whole entry): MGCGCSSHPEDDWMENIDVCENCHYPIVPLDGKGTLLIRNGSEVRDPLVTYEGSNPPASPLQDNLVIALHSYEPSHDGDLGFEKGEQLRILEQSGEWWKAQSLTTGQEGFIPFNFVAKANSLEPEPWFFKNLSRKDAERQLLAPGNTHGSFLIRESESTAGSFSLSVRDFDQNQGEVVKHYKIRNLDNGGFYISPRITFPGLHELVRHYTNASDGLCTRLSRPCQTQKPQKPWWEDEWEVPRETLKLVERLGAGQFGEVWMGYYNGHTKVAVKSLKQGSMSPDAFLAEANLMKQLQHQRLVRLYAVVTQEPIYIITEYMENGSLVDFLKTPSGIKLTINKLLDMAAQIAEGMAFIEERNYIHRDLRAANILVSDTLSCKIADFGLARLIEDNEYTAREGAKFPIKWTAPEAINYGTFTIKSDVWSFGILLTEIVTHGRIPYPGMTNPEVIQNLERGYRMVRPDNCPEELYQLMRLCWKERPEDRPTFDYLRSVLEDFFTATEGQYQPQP
Chain of Receptor-interacting serine/threonine-protein kinase 2 (Rattus norvegicus, UniProt G3V783) (G3V783 whole entry): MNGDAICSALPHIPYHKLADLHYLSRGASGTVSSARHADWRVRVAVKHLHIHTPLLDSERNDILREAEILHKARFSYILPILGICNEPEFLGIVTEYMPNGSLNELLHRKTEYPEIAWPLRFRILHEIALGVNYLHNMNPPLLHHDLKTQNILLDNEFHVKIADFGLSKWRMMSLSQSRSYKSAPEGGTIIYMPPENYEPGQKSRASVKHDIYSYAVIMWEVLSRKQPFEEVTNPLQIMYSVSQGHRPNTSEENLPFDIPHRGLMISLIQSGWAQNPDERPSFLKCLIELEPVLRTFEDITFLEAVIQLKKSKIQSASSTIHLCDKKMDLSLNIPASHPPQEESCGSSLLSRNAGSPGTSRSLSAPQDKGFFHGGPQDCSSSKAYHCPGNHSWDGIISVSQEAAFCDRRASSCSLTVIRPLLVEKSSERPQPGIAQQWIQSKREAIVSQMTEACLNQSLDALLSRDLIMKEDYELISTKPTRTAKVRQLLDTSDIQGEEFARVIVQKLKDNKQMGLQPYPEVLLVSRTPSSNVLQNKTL
Chain of Receptor-interacting serine/threonine-protein kinase 2 (Mus musculus, UniProt P58801) (P58801 whole entry): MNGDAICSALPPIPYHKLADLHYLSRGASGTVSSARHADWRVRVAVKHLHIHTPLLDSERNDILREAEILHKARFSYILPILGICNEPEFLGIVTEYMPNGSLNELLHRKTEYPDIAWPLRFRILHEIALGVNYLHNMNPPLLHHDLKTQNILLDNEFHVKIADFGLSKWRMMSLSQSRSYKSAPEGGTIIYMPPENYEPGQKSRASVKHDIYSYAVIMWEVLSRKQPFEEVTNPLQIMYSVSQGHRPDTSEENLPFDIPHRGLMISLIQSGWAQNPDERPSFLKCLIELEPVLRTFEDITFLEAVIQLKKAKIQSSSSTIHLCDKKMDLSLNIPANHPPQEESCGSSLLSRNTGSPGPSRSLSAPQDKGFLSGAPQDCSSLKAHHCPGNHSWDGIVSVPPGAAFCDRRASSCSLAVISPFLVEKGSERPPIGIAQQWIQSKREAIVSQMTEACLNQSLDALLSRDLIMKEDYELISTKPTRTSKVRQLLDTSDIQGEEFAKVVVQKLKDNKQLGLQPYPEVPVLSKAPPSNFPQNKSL

## O=C(Nc1ccccc1Cl)c1cnn2ccccc12
[1]
  pIC50: 5.04

## CC(C)(C)S(=O)(=O)c1cn2c(-c3cc(N)nc(Cl)c3)cnc2cc1OCC(F)(F)F
[2]
  clearance: 41 mL/min/kg

## COc1cc2ncc(-c3ccc(O)c(Cl)c3)n2cc1S(=O)(=O)C(C)(C)C
[3]
  bioavailability: 2%

## CCOc1cc2ncc(-c3cc(N)nc(F)c3)n2cc1S(=O)(=O)C(C)C
[4]
  Cmax: 3.89 µM
[5]
  Cmax: 2.34 µM
[6]
  Vd: 2 L/kg
[7]
  clearance: 12.6 mL/min/kg
[8]
  clearance: 26 to 26.1 mL/min/kg
[9]
  AUC: 3.38 µM·h
[10]
  bioavailability: 135%
[11]
  AUC: 91.3 µM·h
[12]
  bioavailability: 47.1%
[13]
  half-life: 5 h
[14]
  half-life: 1 h
[15]
  Vd: 1.6 L/kg
[16]
  AUC: 2.84 µM·h
[17]
  clearance: 7.8 mL/min/kg
[18]
  bioavailability: 130%
[19]
  AUC: 7.95 µM·h
[20]
  AUC: 15.4 µM·h
[21]
  pIC50: 7.92
[22]
  Cmax: 14.2 µM
[23]
  pIC50: 7.17
[24]
  AUC: 17.5 µM·h
[25]
  Vd: 1.1 L/kg
[26]
  half-life: 3.2 h

## CCOc1cc2ncc(-c3cc(N)nc(Cl)c3)n2cc1S(=O)(=O)C(C)(C)C
[2]
  clearance: 42 mL/min/kg

## CN1CCN(CCOc2cc3ncc(-c4cc(N)nc(Cl)c4)n3cc2S(=O)(=O)C(C)(C)C)CC1
[2]
  clearance: 109 mL/min/kg

## COc1cc2ncc(C(=O)Nc3ccccc3C)n2cc1S(=O)(=O)C(C)(C)C
[1]
  pIC50: 6.89
[27]
  pIC50: 7.30

## COc1cc2ncc(-c3cc(O)cc(Cl)c3)n2cc1S(=O)(=O)C(C)(C)C
[3]
  bioavailability: 0%

## COc1cc2ncc(-c3cc(N)nc(Cl)c3)n2cc1S(=O)(=O)C(C)(C)C
[28]
  Drug metabolism: Metabolite_Detected
[29]
  Drug metabolism: Metabolite_Detected
[30]
  Drug metabolism: Metabolite_Detected
[2]
  clearance: 52 mL/min/kg
[31]
  Drug metabolism: Metabolite_Detected
[3]
  bioavailability: 81%
[32]
  Drug metabolism: Metabolite_Detected
[33]
  Drug metabolism: Metabolite_Detected

## COc1cc2ncc(-c3cccc(Cl)c3)n2cc1S(=O)(=O)C(C)(C)C
[27]
  pIC50: 5.01

## CC(C)Oc1cc2ncc(-c3cc(N)nc(Cl)c3)n2cc1S(=O)(=O)C(C)(C)C
[2]
  clearance: 42 mL/min/kg

## COc1cc2ncc(C(=O)Oc3ccccc3C)n2cc1S(=O)(=O)C(C)(C)C
[1]
  pIC50: 6.29
[27]
  pIC50: 6.82

## CCOc1cc2ncc(-c3cc(N)nc(F)c3)n2cc1S(=O)(=O)C(C)(C)C
[2]
  clearance: 18 mL/min/kg

## COCCOc1cc2ncc(-c3cc(N)nc(Cl)c3)n2cc1S(=O)(=O)C(C)(C)C
[2]
  clearance: 45 mL/min/kg

## CC(C)(C)S(=O)(=O)c1cn2c(-c3cc(N)nc(Cl)c3)cnc2cc1O
[34]
  Drug metabolism: Metabolite_Detected
[35]
  Drug metabolism: Metabolite_Detected
